Tested on: healthy adult subjects
Assay: Part 1 SAD: treatment-emergent adverse events after single oral dose (N = 6 per dose)
Method: Part 1 of the study is a SAD evaluation in healthy subjects consisting of 6 cohorts: Cohorts 1-6 received powder-in-capsule or matching placebo. There were approximately 8 subjects per cohort. Dose levels were as follows:
No food was given for at least 4 hours after dose administration. Water was allowed ad libitum except for the time 1 hour before and 1 hour after study drug administration. Safety assessments including AEs, safety ECGs, vital signs, and clinical laboratory tests were conducted, and plasma PK samples were collected.
Adverse events (AEs) and serious adverse events (SAEs) were monitored continuously until the completion of the study.

Q: Which results are given for CS(=O)(=O)N[C@H]1CCCN2C(=O)COc3ccccc3C3CCC(CC3)OCC12 (stereo partly drawn) [Compound A, N-[(4S,4aR,7α,10α)-1,2,3,4,4a,5,7,8,9,10,16,17-dodecahydro-17-oxo-7,10-ethanopyrido[1,2-d][1,7,4]benzodioxaazacyclotridecin-4-yl]methanesulfonamide]?
A: AE Leading to Study Drug Discontinuation (1 mg): 0 n; Any SAEs (1 mg): 0 n; Any TEAE (1 mg): 4 n; Death (1 mg): 0 n; TEAE Anxiety (1 mg): 0 n; TEAE Aspartate aminotransferase increased (1 mg): 0 n; TEAE Back pain (1 mg): 0 n; TEAE Blood pressure increased (1 mg): 0 n; TEAE Dermatitis contact (1 mg): 1 n; TEAE Dizziness (1 mg): 0 n; TEAE Fatigue (1 mg): 0 n; TEAE Headache (1 mg): 0 n; TEAE Hot flush (1 mg): 0 n; TEAE Hypervigilance (1 mg): 0 n; TEAE Insomnia (1 mg): 0 n; TEAE Metamorphopsia (1 mg): 0 n; TEAE Nausea (1 mg): 0 n; TEAE Oropharyngeal pain (1 mg): 0 n; TEAE Pharyngitis (1 mg): 1 n; TEAE Pollakiuria (1 mg): 0 n; TEAE Skin hyperpigmentation (1 mg): 1 n; TEAE Upper respiratory tract infection (1 mg): 0 n; TEAE Urinary incontinence (1 mg): 0 n; TEAE Vision blurred (1 mg): 0 n; TEAE by Highest Relationship: Not Related (1 mg): 4 n; TEAE by Highest Relationship: Related (1 mg): 0 n; TEAE by Highest Severity: Mild (1 mg): 1 n; TEAE by Highest Severity: Moderate (1 mg): 3 n; TEAE by Highest Severity: Severe (1 mg): 0 n; AE Leading to Study Drug Discontinuation (3 mg): 0 n; Any SAEs (3 mg): 0 n; Any TEAE (3 mg): 0 n; Death (3 mg): 0 n; TEAE Anxiety (3 mg): 0 n; TEAE Aspartate aminotransferase increased (3 mg): 0 n; TEAE Back pain (3 mg): 0 n; TEAE Blood pressure increased (3 mg): 0 n; TEAE Dermatitis contact (3 mg): 0 n; TEAE Dizziness (3 mg): 0 n; TEAE Fatigue (3 mg): 0 n; TEAE Headache (3 mg): 0 n; TEAE Hot flush (3 mg): 0 n; TEAE Hypervigilance (3 mg): 0 n; TEAE Insomnia (3 mg): 0 n; TEAE Metamorphopsia (3 mg): 0 n; TEAE Nausea (3 mg): 0 n; TEAE Oropharyngeal pain (3 mg): 0 n; TEAE Pharyngitis (3 mg): 0 n; TEAE Pollakiuria (3 mg): 0 n; TEAE Skin hyperpigmentation (3 mg): 0 n; TEAE Upper respiratory tract infection (3 mg): 0 n; TEAE Urinary incontinence (3 mg): 0 n; TEAE Vision blurred (3 mg): 0 n; TEAE by Highest Relationship: Not Related (3 mg): 0 n; TEAE by Highest Relationship: Related (3 mg): 0 n; TEAE by Highest Severity: Mild (3 mg): 0 n; TEAE by Highest Severity: Moderate (3 mg): 0 n; TEAE by Highest Severity: Severe (3 mg): 0 n; AE Leading to Study Drug Discontinuation (8 mg): 0 n; Any SAEs (8 mg): 0 n; Any TEAE (8 mg): 1 n; Death (8 mg): 0 n; TEAE Anxiety (8 mg): 0 n; TEAE Aspartate aminotransferase increased (8 mg): 0 n; TEAE Back pain (8 mg): 0 n; TEAE Blood pressure increased (8 mg): 0 n; TEAE Dermatitis contact (8 mg): 0 n; TEAE Dizziness (8 mg): 0 n; TEAE Fatigue (8 mg): 0 n; TEAE Headache (8 mg): 0 n; TEAE Hot flush (8 mg): 0 n; TEAE Hypervigilance (8 mg): 0 n; TEAE Insomnia (8 mg): 0 n; TEAE Metamorphopsia (8 mg): 0 n; TEAE Nausea (8 mg): 0 n; TEAE Oropharyngeal pain (8 mg): 0 n; TEAE Pharyngitis (8 mg): 0 n; TEAE Pollakiuria (8 mg): 0 n; TEAE Skin hyperpigmentation (8 mg): 0 n; TEAE Upper respiratory tract infection (8 mg): 1 n; TEAE Urinary incontinence (8 mg): 0 n; TEAE Vision blurred (8 mg): 0 n; TEAE by Highest Relationship: Not Related (8 mg): 1 n; TEAE by Highest Relationship: Related (8 mg): 0 n; TEAE by Highest Severity: Mild (8 mg): 1 n; TEAE by Highest Severity: Moderate (8 mg): 0 n; TEAE by Highest Severity: Severe (8 mg): 0 n; AE Leading to Study Drug Discontinuation (15 mg): 0 n; Any SAEs (15 mg): 0 n; Any TEAE (15 mg): 4 n; Death (15 mg): 0 n; TEAE Anxiety (15 mg): 1 n; TEAE Aspartate aminotransferase increased (15 mg): 0 n; TEAE Back pain (15 mg): 0 n; TEAE Blood pressure increased (15 mg): 0 n; TEAE Dermatitis contact (15 mg): 0 n; TEAE Dizziness (15 mg): 2 n; TEAE Fatigue (15 mg): 0 n; TEAE Headache (15 mg): 0 n; TEAE Hot flush (15 mg): 1 n; TEAE Hypervigilance (15 mg): 1 n; TEAE Insomnia (15 mg): 1 n; TEAE Metamorphopsia (15 mg): 1 n; TEAE Nausea (15 mg): 0 n; TEAE Oropharyngeal pain (15 mg): 0 n; TEAE Pharyngitis (15 mg): 0 n; TEAE Pollakiuria (15 mg): 1 n; TEAE Skin hyperpigmentation (15 mg): 0 n; TEAE Upper respiratory tract infection (15 mg): 0 n; TEAE Urinary incontinence (15 mg): 0 n; TEAE Vision blurred (15 mg): 1 n; TEAE by Highest Relationship: Not Related (15 mg): 0 n; TEAE by Highest Relationship: Related (15 mg): 4 n; TEAE by Highest Severity: Mild (15 mg): 4 n; TEAE by Highest Severity: Moderate (15 mg): 0 n; TEAE by Highest Severity: Severe (15 mg): 0 n; AE Leading to Study Drug Discontinuation (25 mg): 0 n; Any SAEs (25 mg): 0 n; Any TEAE (25 mg): 4 n; Death (25 mg): 0 n; TEAE Anxiety (25 mg): 0 n; TEAE Aspartate aminotransferase increased (25 mg): 0 n; TEAE Back pain (25 mg): 0 n; TEAE Blood pressure increased (25 mg): 0 n; TEAE Dermatitis contact (25 mg): 0 n; TEAE Dizziness (25 mg): 4 n; TEAE Fatigue (25 mg): 1 n; TEAE Headache (25 mg): 0 n; TEAE Hot flush (25 mg): 0 n; TEAE Hypervigilance (25 mg): 0 n; TEAE Insomnia (25 mg): 0 n; TEAE Metamorphopsia (25 mg): 0 n; TEAE Nausea (25 mg): 0 n; TEAE Oropharyngeal pain (25 mg): 1 n; TEAE Pharyngitis (25 mg): 0 n; TEAE Pollakiuria (25 mg): 1 n; TEAE Skin hyperpigmentation (25 mg): 0 n; TEAE Upper respiratory tract infection (25 mg): 0 n; TEAE Urinary incontinence (25 mg): 0 n; TEAE Vision blurred (25 mg): 0 n; TEAE by Highest Relationship: Not Related (25 mg): 0 n; TEAE by Highest Relationship: Related (25 mg): 4 n; TEAE by Highest Severity: Mild (25 mg): 4 n; TEAE by Highest Severity: Moderate (25 mg): 0 n; TEAE by Highest Severity: Severe (25 mg): 0 n; AE Leading to Study Drug Discontinuation (50 mg): 0 n; Any SAEs (50 mg): 0 n; Any TEAE (50 mg): 2 n; Death (50 mg): 0 n; TEAE Anxiety (50 mg): 0 n; TEAE Aspartate aminotransferase increased (50 mg): 1 n; TEAE Back pain (50 mg): 0 n; TEAE Blood pressure increased (50 mg): 1 n; TEAE Dermatitis contact (50 mg): 0 n; TEAE Dizziness (50 mg): 2 n; TEAE Fatigue (50 mg): 0 n; TEAE Headache (50 mg): 1 n; TEAE Hot flush (50 mg): 0 n; TEAE Hypervigilance (50 mg): 0 n; TEAE Insomnia (50 mg): 0 n; TEAE Metamorphopsia (50 mg): 0 n; TEAE Nausea (50 mg): 2 n; TEAE Oropharyngeal pain (50 mg): 0 n; TEAE Pharyngitis (50 mg): 0 n; TEAE Pollakiuria (50 mg): 2 n; TEAE Skin hyperpigmentation (50 mg): 0 n; TEAE Upper respiratory tract infection (50 mg): 0 n; TEAE Urinary incontinence (50 mg): 1 n; TEAE Vision blurred (50 mg): 1 n; TEAE by Highest Relationship: Not Related (50 mg): 0 n; TEAE by Highest Relationship: Related (50 mg): 2 n; TEAE by Highest Severity: Mild (50 mg): 1 n; TEAE by Highest Severity: Moderate (50 mg): 1 n; TEAE by Highest Severity: Severe (50 mg): 0 n; AE Leading to Study Drug Discontinuation (Total (N = 36)): 0 n; Any SAEs (Total (N = 36)): 0 n; Any TEAE (Total (N = 36)): 15 n; Death (Total (N = 36)): 0 n; TEAE Anxiety (Total (N = 36)): 1 n; TEAE Aspartate aminotransferase increased (Total (N = 36)): 1 n; TEAE Back pain (Total (N = 36)): 0 n; TEAE Blood pressure increased (Total (N = 36)): 1 n; TEAE Dermatitis contact (Total (N = 36)): 1 n; TEAE Dizziness (Total (N = 36)): 8 n; TEAE Fatigue (Total (N = 36)): 1 n; TEAE Headache (Total (N = 36)): 1 n; TEAE Hot flush (Total (N = 36)): 1 n; TEAE Hypervigilance (Total (N = 36)): 1 n; TEAE Insomnia (Total (N = 36)): 1 n; TEAE Metamorphopsia (Total (N = 36)): 1 n; TEAE Nausea (Total (N = 36)): 2 n; TEAE Oropharyngeal pain (Total (N = 36)): 1 n; TEAE Pharyngitis (Total (N = 36)): 1 n; TEAE Pollakiuria (Total (N = 36)): 4 n; TEAE Skin hyperpigmentation (Total (N = 36)): 1 n; TEAE Upper respiratory tract infection (Total (N = 36)): 1 n; TEAE Urinary incontinence (Total (N = 36)): 1 n; TEAE Vision blurred (Total (N = 36)): 2 n; TEAE by Highest Relationship: Not Related (Total (N = 36)): 5 n; TEAE by Highest Relationship: Related (Total (N = 36)): 10 n; TEAE by Highest Severity: Mild (Total (N = 36)): 11 n; TEAE by Highest Severity: Moderate (Total (N = 36)): 4 n; TEAE by Highest Severity: Severe (Total (N = 36)): 0 n; Tolerability (single doses 1 to 50 mg): well tolerated

Source: patent publication US20250186405A1, “Compound For Use In Treating Narcolepsy” (Alkermes, Inc., priority 2023, published 2025)
